Laboratory results: patent publication US20010046987A1, “Oxazolidinones having a sulfoximine functionality” (priority 1999, published 2001)
Converted amounts (≈) assume the structure as drawn.

Tests used:
Type in all cases: cell-based
[1] = system: Staphylococcus epidermidis; test: MIC by agar dilution, SEPI 30593; conditions: for MIC: Staphylococcus epidermidis, strain SEPI 30593, read-out: Antibacterial Activity Minimum Inhibitory Concentration SEPI 30593; for Antibacterial Activity Minimum Inhibitory Concentration SEPI 30593: strain SEPI 30593
Description: (§1) The in vitro activity of compounds of this invention can be assessed by standard testing procedures such as the determination of minimum inhibitory concentration (MIC) by agar dilution as described in “Approved Standard.

Streptococcus pneumoniae = test: MIC by agar dilution, SPNE 9912; conditions: for MIC: Streptococcus pneumoniae, strain SPNE 9912, read-out: Antibacterial Activity Minimum Inhibitory Concentration SPNE 9912; for Antibacterial Activity Minimum Inhibitory Concentration SPNE 9912: strain SPNE 9912
Description: as §1

Moraxella catarrhalis = test: MIC by agar dilution, MCAT 30607; conditions: for MIC: Moraxella catarrhalis, strain MCAT 30607, read-out: Antibacterial Activity Minimum Inhibitory Concentration MCAT 30607; for Antibacterial Activity Minimum Inhibitory Concentration MCAT 30607: strain MCAT 30607
Description: as §1

Enterococcus faecium = test: MIC by agar dilution, EFAE 12712; conditions: for MIC: Enterococcus faecium, strain EFAE 12712, read-out: Antibacterial Activity Minimum Inhibitory Concentration EFAE 12712; for Antibacterial Activity Minimum Inhibitory Concentration EFAE 12712: strain EFAE 12712
Description: as §1

Staphylococcus aureus = test: MIC by agar dilution, SAUR 9213; conditions: for MIC: Staphylococcus aureus, strain SAUR 9213, read-out: Antibacterial Activity Minimum Inhibitory Concentration SAUR 9213; for Antibacterial Activity Minimum Inhibitory Concentration SAUR 9213: strain SAUR 9213
Description: as §1

H. influenzae = test: MIC by agar dilution, HINF 30063; conditions: for MIC: Haemophilus influenzae, strain HINF 30063, read-out: Antibacterial Activity Minimum Inhibitory Concentration HINF 30063; for Antibacterial Activity Minimum Inhibitory Concentration HINF 30063: strain HINF 30063
Description: as §1

Streptococcus pyogenes = test: MIC by agar dilution, SPYO 152; conditions: for MIC: Streptococcus pyogenes, strain SPYO 152, read-out: Antibacterial Activity Minimum Inhibitory Concentration SPYO 152; for Antibacterial Activity Minimum Inhibitory Concentration SPYO 152: strain SPYO 152
Description: as §1

Enterococcus faecalis = test: MIC by agar dilution, EFAE 9217; conditions: for MIC: Enterococcus faecalis, strain EFAE 9217, read-out: Antibacterial Activity Minimum Inhibitory Concentration EFAE 9217; for Antibacterial Activity Minimum Inhibitory Concentration EFAE 9217: strain EFAE 9217
Description: as §1

MIC [1] [µg/mL]	MIC (Streptococcus pneumoniae) [µg/mL]	MIC (Moraxella catarrhalis) [µg/mL]	MIC (Enterococcus faecium) [µg/mL]	MIC (Staphylococcus aureus) [µg/mL]	MIC (H. influenzae) [µg/mL]	MIC (Streptococcus pyogenes) [µg/mL]	MIC (Enterococcus faecalis) [µg/mL]	SMILES	Antibacterial Activity Minimum Inhibitory Concentration SEPI 30593 [1] [µg/mL]	Antibacterial Activity Minimum Inhibitory Concentration SPNE 9912 (Streptococcus pneumoniae) [µg/mL]	Antibacterial Activity Minimum Inhibitory Concentration MCAT 30607 (Moraxella catarrhalis) [µg/mL]	Antibacterial Activity Minimum Inhibitory Concentration EFAE 12712 (Enterococcus faecium) [µg/mL]	Antibacterial Activity Minimum Inhibitory Concentration SAUR 9213 (Staphylococcus aureus) [µg/mL]	Antibacterial Activity Minimum Inhibitory Concentration HINF 30063 (H. influenzae) [µg/mL]	Antibacterial Activity Minimum Inhibitory Concentration SPYO 152 (Streptococcus pyogenes) [µg/mL]	Antibacterial Activity Minimum Inhibitory Concentration EFAE 9217 (Enterococcus faecalis) [µg/mL]
0.5 (≈ 1.13 µM)	0.25 (≈ 0.567 µM)	2 (≈ 4.54 µM)	1 (≈ 2.27 µM)	2 (≈ 4.54 µM)	4 (≈ 9.08 µM)	0.5 (≈ 1.13 µM)	0.5 (≈ 1.13 µM)	CN=S1(=O)CCN(c2ccc(N3C[C@H](CNC(=S)C4CC4)OC3=O)cc2F)CC1 [Example 26, N-[((5S)-3-{3-Fluoro-4-[1-(methylimino)-1-oxido-1λ^4,4-thiazinan-4-yl]phenyl}-2-oxo-1,3-oxazolidin-5-yl)methyl]cyclopropanecarbothioamide]	–	–	–	–	–	–	–	–
–	–	–	–	–	–	–	–	CCC(=S)NC[C@H]1CN(c2ccc(N3CCS(=O)(=NC(=O)OC)CC3)c(F)c2)C(=O)O1 [Example 27, N-[((5S)-3-{3-Fluoro-4-(1-[(methoxycarbonyl)imino]-1-oxido-1λ^4,4-thiazinan-4-yl)phenyl}-2-oxo-1,3-oxazolidin-5-yl)methyl]propanethioamide]	0.5	0.125	8	0.5	2	4	0.5	0.5
–	–	–	–	–	–	–	–	COC(=O)N=S1(=O)CCN(c2ccc(N3C[C@H](CNC(=S)C4CC4)OC3=O)cc2F)CC1 [Example 28, N-[((5S)-3-{3-Fluoro-4-(1-[(methoxycarbonyl)imino]-1-oxido-1λ^4,4-thiazinan-4-yl)phenyl}-2-oxo-1,3-oxazolidin-5-yl)methyl]cyclopropanecarbothioamide]	0.5	0.25	2	1	2	4	0.5	1
–	–	–	–	–	–	–	–	C[N-][S+2]1([O-])CCC(c2ccc(N3CC(CNC(=S)C4CC4)OC3=O)cc2F)CC1 [Example 31, N-[((5S)-3-{3-Fluoro-4-[1-(methylimino)-1-oxidohexahydro-1λ^4-thiopyran-4-yl]phenyl}-2-oxo-1,3-oxazolidin-5-yl)methyl]cyclopropanecarbothioamide, E-isomer]	1	0.5	4	2	2	8	1	1
1 (≈ 2.34 µM)	0.5 (≈ 1.17 µM)	8 (≈ 18.7 µM)	2 (≈ 4.68 µM)	4 (≈ 9.36 µM)	8 (≈ 18.7 µM)	1 (≈ 2.34 µM)	2 (≈ 4.68 µM)	CCC(=S)NCC1CN(c2ccc(C3CC[S+2]([O-])([N-]C)CC3)c(F)c2)C(=O)O1 [Example 32, N-[((5S)-3-{3-Fluoro-4-[1-(methylimino)-1-oxidohexahydro-1λ^4-thiopyran-4-yl]phenyl}-2-oxo-1,3-oxazolidin-5-yl)methyl]propanethioamide, E-isomer]	–	–	–	–	–	–	–	–
–	–	–	–	–	–	–	–	CC(=O)NC[C@H]1CN(c2ccc(N3CCS(=N)(=O)CC3)c(F)c2)C(=O)O1 [PREP 1, N-({(5S)-3-[3-Fluoro-4-(1-imino-1-oxido-1λ^4,4-thiazinan-4-yl)phenyl]-2-oxo-1,3-oxazolidin-5-yl}methyl)acetamide]	4	1	8	4	16	16	2	8
